Experiments:
barnyardgrass [1] = test: Test B pre-/postemergence herbicide test; assay type: in vivo, Echinochloa crus-galli; conditions: for Barnyardgrass plant response rating: postemergence
How it was run: (§1)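 Test chemicals in a non-phytotoxic solvent mixture with surfactant were applied preemergence to seeded species and postemergence to plants 2-18 cm tall (1- to 4-leaf stage); rice and barnyardgrass were also tested in a flooded paddy at the 2-leaf stage. Visual rating versus controls after 13-15 days in greenhouse, scale 0 (no effect) to 100 (complete control).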

Surinam grass = test: Test B pre-/postemergence herbicide test; assay type: in vivo, Urochloa decumbens; conditions: for Surinam Grass plant response rating: postemergence
How it was run: (§2)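 Pre: seeds sown, then sprayed. Post: 1–4-leaf plants (2–18 cm) sprayed at the same time. Paddy: flooded, treated at 2-leaf stage. Formulation: non-phytotoxic solvent with surfactant. Greenhouse 13–15 days; visual 0–100 score relative to controls.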

cocklebur = test: Test B pre-/postemergence herbicide test; assay type: in vivo, Xanthium strumarium; conditions: for Cocklebur plant response rating: postemergence
How it was run: as §1

corn = test: Test B pre-/postemergence herbicide test; assay type: in vivo, Zea mays; conditions: for Corn plant response rating: postemergence
How it was run: as §2

large crabgrass = test: Test B pre-/postemergence herbicide test; assay type: in vivo, Digitaria sanguinalis; conditions: for Crabgrass, Large plant response rating: postemergence
How it was run: as §2

giant foxtail = test: Test B pre-/postemergence herbicide test; assay type: in vivo, Setaria faberi; conditions: for Foxtail, Giant plant response rating: postemergence
How it was run: as §2

lambsquarters = test: Test B pre-/postemergence herbicide test; assay type: in vivo, Chenopodium album; conditions: for Lambsquarters plant response rating: postemergence
How it was run: as §2

morningglory = test: Test B pre-/postemergence herbicide test; assay type: in vivo, Ipomoea coccinea; conditions: for Morningglory plant response rating: postemergence
How it was run: as §1

pigweed = test: Test B pre-/postemergence herbicide test; assay type: in vivo, Amaranthus retroflexus; conditions: for Pigweed plant response rating: postemergence
How it was run: as §2

rice [2] = test: Test B pre-/postemergence herbicide test; assay type: in vivo, Oryza sativa; conditions: preemergence
How it was run: as §2

velvetleaf = test: Test B pre-/postemergence herbicide test; assay type: in vivo, Abutilon theophrasti; conditions: for Velvetleaf plant response rating: postemergence
How it was run: as §2

blackgrass = test: Test B postemergence herbicide test; assay type: in vivo, Alopecurus myosuroides; conditions: for Blackgrass plant response rating: postemergence
How it was run: (§3)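 Paddy species grown to the 2-leaf stage under flooding; blackgrass sprayed postemergence at 2–18 cm (1- to 4-leaf stage). Plants kept in a greenhouse for 13 to 15 days, then visually rated against controls on 0 (no effect) to 100 (complete control).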

wheat = test: Test B postemergence herbicide test; assay type: in vivo, Triticum aestivum; parameters: key to Wheat plant response rating: 0 = no effect, 100 = complete control; conditions: for Wheat plant response rating: postemergence
How it was run: (§4)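 Each value is a visual 0–100 response rating taken against controls 13 to 15 days after treatment in the greenhouse. Plants received formulated chemical postemergence at the 1- to 4-leaf stage or, in flooded paddy, at the 2-leaf stage.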

wild oat = test: Test B postemergence herbicide test; assay type: in vivo, Avena fatua; conditions: for Oat, Wild plant response rating: postemergence
How it was run: as §4

rice [3] = test: Test B flooded paddy test; assay type: in vivo, Oryza sativa; conditions: 1000 g ai/ha, scale 0 to 100 (0 no effect, 100 complete control)
How it was run: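 Plants grow to 1- to 4-leaf stage (2–18 cm) for postemergence spraying, or to 2-leaf stage for the paddy test. Formulated compound is applied. Greenhouse holding lasts 13–15 days. Response is scored visually relative to controls, 0 no effect to 100 complete control; a dash means no result.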

[4] = system: small flower umbrella sedge; test: Test B flooded paddy test; assay type: in vivo, Cyperus difformis; conditions: 1000 g ai/ha, scale 0 to 100 (0 no effect, 100 complete control)
How it was run: as §3

ducksalad = test: Test B flooded paddy test; assay type: in vivo, Heteranthera limosa; conditions: 1000 g ai/ha, scale 0 to 100 (0 no effect, 100 complete control)
How it was run: as §3

barnyardgrass [5] = test: Test B flooded paddy test; assay type: in vivo, Echinochloa crus-galli; conditions: 1000 g ai/ha, scale 0 to 100 (0 no effect, 100 complete control)
How it was run: as §3

[6] = 125 g ai/ha, 0 = no effect, 100 = complete control, preemergence
[7] = 500 g ai/ha, visual rating, 0 = no effect, 100 = complete control, preemergence
[8] = 125 g ai/ha, visual rating, scale 0 (no effect) to 100 (complete control)
[9] = 500 g ai/ha, scale 0 to 100, 0 is no effect, 100 is complete control
[10] = 500 g ai/ha, visual rating 0-100, 0 no effect, 100 complete control, preemergence
[11] = Postemergence, 500 g ai/ha, visual rating after 13 to 15 days, scale 0 (no effect) to 100 (complete control)
[12] = preemergence, 125 g ai/ha, 0 to 100 scale, 0 is no effect, 100 is complete control

CCNC(=O)c1ccc(F)c(NC(=O)c2c(F)c(C(C)(C)C)nn2CC)c1 [Compound 275]
Barnyardgrass plant response rating (0 to 100 scale) (barnyardgrass [1]; [6]): 0
Plant response rating, Barnyardgrass (barnyardgrass [1]; [7]): 60
Barnyardgrass plant response rating (barnyardgrass [1]; [8]): 0
Barnyardgrass plant response rating (barnyardgrass [1]; [9]): 20
Surinam Grass plant response rating (0 to 100 scale) (Surinam grass; [6]): 0
Plant response rating, Surinam Grass (Surinam grass; [7]): 10
Surinam Grass plant response rating (Surinam grass; [8]): 10
Surinam Grass plant response rating (Surinam grass; [9]): 30
Cocklebur plant response rating (0 to 100 scale) (cocklebur; [6]): 0
Plant response rating, Cocklebur (cocklebur; [7]): 0
Cocklebur plant response rating (cocklebur; [8]): 0
Cocklebur plant response rating (cocklebur; [9]): 10
Corn plant response rating (0 to 100 scale) (corn; [6]): 0
Plant response rating, Corn (corn; [7]): 20
Corn plant response rating (corn; [8]): 0
Corn plant response rating (corn; [9]): 0
Crabgrass, Large plant response rating (0 to 100 scale) (large crabgrass; [6]): 0
Plant response rating, Crabgrass, Large (large crabgrass; [7]): 0
Crabgrass, Large plant response rating (large crabgrass; [8]): 0
Crabgrass, Large plant response rating (large crabgrass; [9]): 10
Foxtail, Giant plant response rating (0 to 100 scale) (giant foxtail; [6]): 0
Plant response rating, Foxtail, Giant (giant foxtail; [7]): 20
Foxtail, Giant plant response rating (giant foxtail; [8]): 0
Foxtail, Giant plant response rating (giant foxtail; [9]): 0
Plant response rating, Lambsquarters (lambsquarters; [7]): 100
Lambsquarters plant response rating (lambsquarters; [8]): 50
Lambsquarters plant response rating (lambsquarters; [9]): 70
Morningglory plant response rating (0 to 100 scale) (morningglory; [6]): 0
Plant response rating, Morningglory (morningglory; [7]): 40
Morningglory plant response rating (morningglory; [8]): 0
Morningglory plant response rating (morningglory; [9]): 10
Pigweed plant response rating (0 to 100 scale) (pigweed; [6]): 0
Plant response rating, Pigweed (pigweed; [7]): 40
Pigweed plant response rating (pigweed; [8]): 60
Pigweed plant response rating (pigweed; [9]): 70
Rice plant response rating (0 to 100 scale) (rice [2]; 125 g ai/ha, 0 = no effect, 100 = complete control): 0
Plant response rating, Rice (rice [2]; 500 g ai/ha, visual rating, 0 = no effect, 100 = complete control): 60
Velvetleaf plant response rating (0 to 100 scale) (velvetleaf; [6]): 0
Plant response rating, Velvetleaf (velvetleaf; [7]): 0
Velvetleaf plant response rating (velvetleaf; [8]): 0
Velvetleaf plant response rating (velvetleaf; [9]): 30
Blackgrass plant response rating (blackgrass; [8]): 40
Blackgrass plant response rating (blackgrass; [9]): 40
Wheat plant response rating (wheat; [8]): 20
Wheat plant response rating (wheat; [9]): 30
Oat, Wild plant response rating (wild oat; [8]): 30
Oat, Wild plant response rating (wild oat; [9]): 40
Rice plant response rating (rice [3]): 20
Sedge, Umbrella plant response rating [4]: 80
Ducksalad plant response rating (ducksalad): 60
Barnyardgrass plant response rating (barnyardgrass [5]): 20

CCn1nc(C(C)(C)C)cc1C(=O)Nc1ccc(C)c(C(=O)OC(C)C)c1 [Compound 100]
Plant response rating, Barnyardgrass (barnyardgrass [1]; [10]): 0
Plant response rating, Barnyardgrass (barnyardgrass [1]; [11]): 0
Barnyardgrass plant response rating (barnyardgrass [1]; [8]): 0
Plant response rating, Barnyardgrass (barnyardgrass [1]; [12]): 0
Plant response rating, Surinam Grass (Surinam grass; [10]): 0
Plant response rating, Surinam Grass (Surinam grass; [11]): 20
Surinam Grass plant response rating (Surinam grass; [8]): 0
Plant response rating, Surinam Grass (Surinam grass; [12]): 0
Plant response rating, Cocklebur (cocklebur; [10]): 0
Plant response rating, Cocklebur (cocklebur; [11]): 0
Cocklebur plant response rating (cocklebur; [8]): 0
Plant response rating, Cocklebur (cocklebur; [12]): 0
Plant response rating, Corn (corn; [10]): 0
Plant response rating, Corn (corn; [11]): 0
Corn plant response rating (corn; [8]): 0
Plant response rating, Corn (corn; [12]): 0
Plant response rating, Crabgrass, Large (large crabgrass; [10]): 0
Plant response rating, Crabgrass, Large (large crabgrass; [11]): 0
Crabgrass, Large plant response rating (large crabgrass; [8]): 0
Plant response rating, Crabgrass, Large (large crabgrass; [12]): 0
Plant response rating, Foxtail, Giant (giant foxtail; [10]): 0
Plant response rating, Foxtail, Giant (giant foxtail; [11]): 0
Foxtail, Giant plant response rating (giant foxtail; [8]): 0
Plant response rating, Foxtail, Giant (giant foxtail; [12]): 0
Plant response rating, Lambsquarters (lambsquarters; [10]): 0
Plant response rating, Lambsquarters (lambsquarters; [11]): 50
Lambsquarters plant response rating (lambsquarters; [8]): 0
Plant response rating, Lambsquarters (lambsquarters; [12]): 0
Plant response rating, Morningglory (morningglory; [10]): 0
Plant response rating, Morningglory (morningglory; [11]): 0
Morningglory plant response rating (morningglory; [8]): 0
Plant response rating, Morningglory (morningglory; [12]): 0
Plant response rating, Pigweed (pigweed; [10]): 0
Plant response rating, Pigweed (pigweed; [11]): 60
Pigweed plant response rating (pigweed; [8]): 0
Plant response rating, Pigweed (pigweed; [12]): 0
Plant response rating, Rice (rice [2]; 500 g ai/ha, visual rating 0-100, 0 no effect, 100 complete control): 0
Plant response rating, Rice (rice [2]; 125 g ai/ha, 0 to 100 scale, 0 is no effect, 100 is complete control): 0
Plant response rating, Velvetleaf (velvetleaf; [10]): 0
Plant response rating, Velvetleaf (velvetleaf; [11]): 0
Velvetleaf plant response rating (velvetleaf; [8]): 0
Plant response rating, Velvetleaf (velvetleaf; [12]): 0
Plant response rating, Blackgrass (blackgrass; [11]): 30
Blackgrass plant response rating (blackgrass; [8]): 10
Plant response rating, Wheat (wheat; [11]): 10
Wheat plant response rating (wheat; [8]): 10
Plant response rating, Oat, Wild (wild oat; [11]): 40
Oat, Wild plant response rating (wild oat; [8]): 20
Rice plant response rating (rice [3]; visual rating, 13 to 15 days): 0
Sedge, Umbrella plant response rating ([4]; visual rating, 13 to 15 days): 0
Ducksalad plant response rating (ducksalad; visual rating, 13 to 15 days): 0
Barnyardgrass plant response rating (barnyardgrass [5]; visual rating, 13 to 15 days): 0

Source: US20060069132A1, “Azolecarboxamide herbicides” (priority 2004, published 2006)
